# Test results as given in ChEMBL document CHEMBL4342486, “An Alkyne-functionalized Arginine for Solid-Phase Synthesis Enabling "Bioorthogonal" Peptide Conjugation” (ACS Med Chem Lett, 2020).
# How the values were obtained:
# [1] = molecular target: Neurotensin receptor type 1 (Homo sapiens, UniProt P30989); assay: Displacement of [3H]UR-MK300 from human NTS1R expressed in human HT-29 cells incubated for 2 hrs by scintillation counting method; type: cell-based
# [2] = Chemical stability of compound in PBS buffer at pH 7.4 at 100 uM incubated for 48 hrs by RP-HPLC analysis; type: physicochemical; conditions: pH 7.4, 48 h
# [3] = molecular target: Neuropeptide Y receptor type 4 (Homo sapiens, UniProt P50391); assay: Displacement of [3H]UR-KK200 from human Y4R expressed in CHO cells incubated for 90 mins by microbeta scintillation counting method; type: cell-based
# Sequence of Neuropeptide Y receptor type 4 (P50391 whole entry): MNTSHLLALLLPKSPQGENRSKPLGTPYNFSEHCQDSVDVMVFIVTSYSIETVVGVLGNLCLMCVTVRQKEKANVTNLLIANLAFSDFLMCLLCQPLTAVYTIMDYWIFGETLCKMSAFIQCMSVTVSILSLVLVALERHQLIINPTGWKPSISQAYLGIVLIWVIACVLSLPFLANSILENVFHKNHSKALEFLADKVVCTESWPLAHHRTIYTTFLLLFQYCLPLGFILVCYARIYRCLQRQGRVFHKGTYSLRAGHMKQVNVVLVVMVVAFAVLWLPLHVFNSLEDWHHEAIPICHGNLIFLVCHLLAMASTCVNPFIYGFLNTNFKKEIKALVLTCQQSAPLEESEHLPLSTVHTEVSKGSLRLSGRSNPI
# Sequence of Neurotensin receptor type 1 (P30989 whole entry): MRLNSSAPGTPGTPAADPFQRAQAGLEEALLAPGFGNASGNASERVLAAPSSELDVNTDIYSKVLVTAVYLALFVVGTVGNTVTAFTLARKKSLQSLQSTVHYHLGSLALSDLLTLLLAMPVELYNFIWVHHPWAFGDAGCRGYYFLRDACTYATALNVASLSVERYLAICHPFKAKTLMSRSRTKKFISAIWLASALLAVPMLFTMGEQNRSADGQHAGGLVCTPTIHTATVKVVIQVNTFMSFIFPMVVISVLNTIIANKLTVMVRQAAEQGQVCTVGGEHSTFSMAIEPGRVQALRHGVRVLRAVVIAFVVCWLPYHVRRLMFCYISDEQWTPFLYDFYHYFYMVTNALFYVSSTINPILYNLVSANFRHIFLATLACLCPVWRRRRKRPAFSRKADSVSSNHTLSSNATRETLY
Compound,Ki ([1]; read-out: Ki),Ki ([1]; read-out: pKi (converted)),Stability [2],Ki [3]
CC(C)C[C@H](NC(=O)[C@@H](NC(=O)[C@H](Cc1ccc(O)cc1)NC(=O)[C@@H]1CCCN1C(=O)[C@H](CCCNC(=N)N)NC(=O)[C@@H](N)CCCNC(=N)NC(=O)NCCCCc1cn(CCCNC(=O)CCCCCN2/C(=C/C=C/C=C/C3=[N+](C)c4ccc5c(S(=O)(=O)[O-])cc(S(=O)(=O)O)cc5c4C3(C)C)C(C)(C)c3c2ccc2c(S(=O)(=O)O)cc(S(=O)(=O)O)cc32)nn1)C(C)(C)C)C(=O)O,50 nM,–,Stable,–
CC(=O)N[C@@H](CCCNC(=N)NC(=O)NCCCCc1cn(CCCNC(=O)CCCCCN2/C(=C/C=C/C=C/C3=[N+](C)c4ccc5c(S(=O)(=O)[O-])cc(S(=O)(=O)O)cc5c4C3(C)C)C(C)(C)c3c2ccc2c(S(=O)(=O)O)cc(S(=O)(=O)O)cc32)nn1)C(=O)N[C@@H](Cc1ccc(O)cc1)C(=O)N[C@@H](CCCNC(=N)N)C(=O)N[C@@H](CC(C)C)C(=O)N[C@@H](CCCNC(=N)N)C(=O)N[C@@H](Cc1ccc(O)cc1)C(N)=O,–,–,Stable,33 nM
C#CCCCCNC(=O)NC(=N)NCCC[C@H](NC(=O)[C@H](CCCNC(=N)N)NC)C(=O)N1CCC[C@H]1C(=O)N[C@@H](Cc1ccc(O)cc1)C(=O)N[C@H](C(=O)N[C@@H](CC(C)C)C(=O)O)C(C)(C)C,9.6 nM,9.33 nM,–,–

# Continued by falling Ki ([1]; read-out: Ki), values first:
Ki ([1]; read-out: Ki),Ki ([1]; read-out: pKi (converted)),Stability [2],Ki [3],Compound
9.4 nM,–,–,–,C#CCCCCNC(=O)NC(=N)NCCC[C@H](NC(=O)[C@@H](N)CCCNC(=N)N)C(=O)N1CCC[C@H]1C(=O)N[C@@H](Cc1ccc(O)cc1)C(=O)N[C@H](C(=O)N[C@@H](CC(C)C)C(=O)O)C(C)(C)C
4.2 nM,4.07 nM,–,–,C#CCCCCNC(=O)NC(=N)NCCC[C@H](N)C(=O)N[C@@H](CCCNC(=N)N)C(=O)N1CCC[C@H]1C(=O)N[C@@H](Cc1ccc(O)cc1)C(=O)N[C@H](C(=O)N[C@@H](CC(C)C)C(=O)O)C(C)(C)C
